The text below walks through data of the Kinase Knowledgebase extract (Sharma et al. 2016).

For the first experiment, the target named is EGFR (UniProt P00533). Particulars: concentration not given here.
EGFR, sequence (P00533 whole entry, looked up): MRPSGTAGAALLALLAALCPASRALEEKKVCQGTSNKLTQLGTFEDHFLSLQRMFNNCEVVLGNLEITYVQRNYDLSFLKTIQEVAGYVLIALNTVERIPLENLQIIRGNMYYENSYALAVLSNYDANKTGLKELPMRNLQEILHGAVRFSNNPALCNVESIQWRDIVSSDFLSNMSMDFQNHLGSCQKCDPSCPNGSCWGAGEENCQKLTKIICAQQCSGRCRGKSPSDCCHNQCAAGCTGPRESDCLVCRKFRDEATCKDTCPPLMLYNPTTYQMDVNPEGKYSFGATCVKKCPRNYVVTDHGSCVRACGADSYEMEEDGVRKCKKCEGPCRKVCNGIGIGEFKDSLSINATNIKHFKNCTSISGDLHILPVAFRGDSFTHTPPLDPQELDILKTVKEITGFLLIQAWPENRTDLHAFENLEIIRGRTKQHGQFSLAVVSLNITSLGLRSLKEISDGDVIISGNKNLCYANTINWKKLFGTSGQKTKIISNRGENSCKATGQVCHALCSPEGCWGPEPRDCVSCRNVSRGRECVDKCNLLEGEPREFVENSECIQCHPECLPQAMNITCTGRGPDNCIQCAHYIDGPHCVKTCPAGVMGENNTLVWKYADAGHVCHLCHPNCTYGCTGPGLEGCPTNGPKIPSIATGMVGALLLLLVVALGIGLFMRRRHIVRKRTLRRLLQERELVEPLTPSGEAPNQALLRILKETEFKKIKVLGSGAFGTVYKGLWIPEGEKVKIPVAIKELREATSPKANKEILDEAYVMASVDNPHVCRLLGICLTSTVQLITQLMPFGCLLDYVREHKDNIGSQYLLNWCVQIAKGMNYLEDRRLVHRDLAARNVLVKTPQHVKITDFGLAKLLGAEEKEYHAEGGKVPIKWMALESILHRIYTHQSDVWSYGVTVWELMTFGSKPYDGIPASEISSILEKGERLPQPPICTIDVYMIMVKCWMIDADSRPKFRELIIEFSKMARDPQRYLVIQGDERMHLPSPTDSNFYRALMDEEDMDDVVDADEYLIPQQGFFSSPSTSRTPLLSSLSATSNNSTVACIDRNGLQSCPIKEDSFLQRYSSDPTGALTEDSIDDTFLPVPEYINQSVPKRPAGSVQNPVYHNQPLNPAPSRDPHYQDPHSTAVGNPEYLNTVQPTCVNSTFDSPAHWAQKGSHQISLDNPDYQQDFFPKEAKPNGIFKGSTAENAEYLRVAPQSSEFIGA
As a reminder, the inhibition is how much of the control response was suppressed. A lower inhibition goes with a weak effect. As for `COC(=O)c1ccc(-c2ccc(-c3ccccc3)cc2O)cc1`, the inhibition was 14%.

As for `COCOc1cc(C(C)(C)C)ccc1-c1ccc(C(=O)OC)cc1`, the inhibition amounted to 0%.

As for `CC(C)(C)c1cc(O)cc(-c2ccc(CO)cc2)c1`, the inhibition came to 0%.

As for `COCOc1cc(-c2ccccc2)ccc1-c1ccc(C(=O)NCc2ccccc2)cc1`, the inhibition was 0%.

`CC(C)(C)c1cc(O)cc(-c2ccc(C(=O)NCc3ccccc3)cc2)c1` registered an inhibition of 0%.

Compound `COCOc1cc(-c2ccccc2)ccc1-c1ccc(C(=O)OCC(C)CC(C)(C)C)cc1` (centres undefined) returned an inhibition of 0%.

With `O=C(NCc1ccccc1)c1ccc(-c2ccc(-c3ccccc3)cc2O)cc1`, the inhibition was 0%.

`O=C(NCc1ccccc1)c1ccc(-c2cccc(-c3ccccc3)c2O)cc1` registered an inhibition of 0%.

Consider `CC(C)(C)c1ccc(-c2ccc(C(=O)O)cc2)c(O)c1`, for which the inhibition was determined as 0%.

`COCOc1cc(C(C)(C)C)ccc1-c1ccc(C(=O)NCc2ccccc2)cc1` yielded an inhibition of 0%.

The target in a further experiment is EGFR (Hamster) (UniProt P00533). Particulars: er22, dose or concentration not given here.
EGFR (Hamster), sequence (P00533 whole entry, looked up): as above
In turn, `COC(=O)c1ccc(-c2cc(O)cc(C(C)(C)C)c2)cc1` gave an inhibition of 0%.

On to `COC(=O)c1ccc(-c2ccc(C(C)(C)C)cc2O)cc1`, for which the inhibition came to 0%.

Consider `O=C(NCc1ccccc1)c1ccc(-c2cccc(-c3ccccc3)c2O)cc1`, for which the inhibition amounted to 0%.

`CC(C)(C)c1ccc(-c2ccc(C(=O)O)cc2)c(O)c1`: the inhibition amounted to 0%.
